Tests used:
Assay in all cases: normalised viability (% of control), CellTiter-Blue; higher = more viable cells (about 100 = DMSO control)
Conditions in all cases: incubation time: 72 h
HCC1599 = test system: HCC1599
Method in brief: (§1)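 Compound dissolved in 5 µl medium was pre-loaded into 384-well plates, and breast cancer cell lines in 20 µl suspension were seeded on top and incubated 72 h. After adding 2.5 µl CellTiter-Blue reagent for 2 h at 37 °C, fluorescence was read at 560/590 nm. Plates were normalised to vehicle (100) and a positive kill control (0), with Z'-factor quality control. Each value is normalised viability at a single listed concentration from the series.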

CAL-85-1 = test system: CAL-85-1
Method in brief: as §1

HCC1143 = test system: HCC1143
Method in brief: as §1

MFM-223 = test system: MFM-223
Method in brief: as §1

BT-549 = test system: BT-549
Method in brief: as §1

CAL-120 = test system: CAL-120
Method in brief: as §1

CAL-51 = test system: CAL-51
Method in brief: as §1

SK-BR-3 = test system: SK-BR-3
Method in brief: as §1

MDA-MB-231 = test system: MDA-MB-231
Method in brief: as §1

CAL-148 = test system: CAL-148
Method in brief: as §1

HDQ-P1 = test system: HDQ-P1
Method in brief: as §1

Hs578T = test system: Hs578T
Method in brief: as §1

MDA-MB-453 = test system: MDA-MB-453
Method in brief: as §1

MDA-MB-436 = test system: MDA-MB-436
Method in brief: as §1

BT-474 = test system: BT-474
Method in brief: as §1

HCC1937 = test system: HCC1937
Method in brief: as §1

DU-4475 = test system: DU-4475
Method in brief: as §1

Oc1ncnc2[nH]ncc12 [Allopurinol]
normalised viability [%]
Conditions	3 nM	10 nM	30 nM	100 nM	1000 nM	10000 nM
BT-474	–	114	–	–	116	102
BT-549	–	105	–	–	86.6	99.1
CAL-51	98.2	–	91.9	94.8	–	–
CAL-85-1	109	–	98	106	–	–
CAL-120	–	120	–	–	109	108
CAL-148	113	–	121	120	–	–
DU-4475	104	–	92.1	97	–	–
HCC1143	–	119	–	–	123	108
HCC1599	–	87.1	–	–	77.3	90.1
HCC1937	–	87.2	–	–	79.2	96.2
HDQ-P1	95.9	–	93.1	91.8	–	–
Hs578T	–	108	–	–	120	106
MDA-MB-231	–	91.8	–	–	93.9	107
MDA-MB-436	–	100	–	–	101	93.4
MDA-MB-453	115	–	105	105	–	–
MFM-223	–	95.3	–	–	110	105
SK-BR-3	–	100	–	–	103	105

O=NN(CCCl)C(=O)NCCCl [Carmustine]
normalised viability [%]
Conditions	3 nM	10 nM	30 nM	100 nM	1000 nM	10000 nM
BT-474	–	124	–	–	98.8	125
BT-549	–	88.2	–	–	89.9	103
CAL-51	108	–	107	99.4	–	–
CAL-85-1	95.1	–	88.9	96.6	–	–
CAL-120	–	98.9	–	–	83	82.5
CAL-148	94.5	–	96.7	97.5	–	–
DU-4475	85.3	–	83.5	93	–	–
HCC1143	–	87.2	–	–	85.4	86.6
HCC1599	–	99	–	–	83.5	84.2
HCC1937	–	95	–	–	93	71.5
HDQ-P1	120	–	128	108	–	–
Hs578T	–	114	–	–	95.3	115
MDA-MB-231	–	103	–	–	99.1	117
MDA-MB-436	–	91.8	–	–	105	87.5
MDA-MB-453	109	–	105	110	–	–
MFM-223	–	93.1	–	–	94.6	103
SK-BR-3	–	100	–	–	123	96.9

COc1cc2c(cc1O)CC[C@@H]1[C@@H]2CC[C@]2(C)[C@@H](O)CC[C@@H]12 [2-methoxyestradiol]
normalised viability [%]
Conditions	3 nM	10 nM	30 nM	100 nM	1000 nM	10000 nM
BT-474	–	133	–	–	64.3	48.5
BT-549	–	89.1	–	–	51.7	17.6
CAL-51	122	–	114	106	–	–
CAL-85-1	91.4	–	85.5	94.5	–	–
CAL-120	–	105	–	–	61.4	24.2
CAL-148	89.8	–	89.5	86	–	–
DU-4475	108	–	102	109	–	–
HCC1143	–	92.4	–	–	82.7	37.1
HCC1599	–	97.3	–	–	116	80.5
HCC1937	–	113	–	–	54.3	26.8
HDQ-P1	103	–	93.9	93.2	–	–
Hs578T	–	114	–	–	67.5	16.2
MDA-MB-231	–	83.9	–	–	44.8	30.5
MDA-MB-436	–	104	–	–	60.5	44.6
MDA-MB-453	114	–	87.5	96.7	–	–
MFM-223	–	98.8	–	–	74.9	99.2
SK-BR-3	–	97.6	–	–	101	20.2

CC1=C2C[C@H]3[C@@H](CC=C4C[C@@H](O)CC[C@@]43C)[C@@H]2CC[C@]12O[C@@H]1C[C@H](C)CN[C@H]1[C@H]2C [Cyclopamine]
normalised viability [%]
Conditions	3 nM	10 nM	30 nM	100 nM	1000 nM	10000 nM
BT-474	–	135	–	–	114	132
BT-549	–	88.6	–	–	87.2	92
CAL-51	114	–	104	111	–	–
CAL-85-1	104	–	91.9	99.9	–	–
CAL-120	–	98.1	–	–	98.4	97.3
CAL-148	104	–	117	110	–	–
DU-4475	102	–	103	107	–	–
HCC1143	–	96	–	–	107	99.1
HCC1599	–	108	–	–	112	100
HCC1937	–	100	–	–	74	105
HDQ-P1	89.1	–	106	114	–	–
Hs578T	–	127	–	–	102	105
MDA-MB-231	–	107	–	–	97.2	104
MDA-MB-436	–	110	–	–	80.5	114
MDA-MB-453	123	–	101	120	–	–
MFM-223	–	96	–	–	90.2	103
SK-BR-3	–	103	–	–	123	103

O=C1CN2Cc3c(ccc(Cl)c3Cl)N=C2N1 [Anagrelide]
normalised viability [%]
Conditions	3 nM	10 nM	30 nM	100 nM	1000 nM	10000 nM
BT-474	–	126	–	–	132	130
BT-549	–	88.7	–	–	89.1	99.4
CAL-51	110	–	96.5	84.3	–	–
CAL-85-1	102	–	84.7	97.1	–	–
CAL-120	–	91.3	–	–	91.9	86.2
CAL-148	96.5	–	102	103	–	–
DU-4475	89.5	–	79.5	96.1	–	–
HCC1143	–	83.5	–	–	87.8	83.2
HCC1599	–	112	–	–	93.1	89.3
HCC1937	–	95.6	–	–	82.5	77.8
HDQ-P1	116	–	95	99.2	–	–
Hs578T	–	101	–	–	90.9	88.2
MDA-MB-231	–	103	–	–	95.5	104
MDA-MB-436	–	79.2	–	–	97	99
MDA-MB-453	110	–	102	98.5	–	–
MFM-223	–	100	–	–	99	104
SK-BR-3	–	119	–	–	110	107

Source: the supplement of paper PMC4862054
